The test system of assay [1] is MDA-MB-231 breast (STAT3-dependent) cancer cell line. The assay can be described thus: MTT cell viability assay, MDA-MB-231. It counts as cell-based, human. The following applies: for IC50: MTT, 48 hours exposure (table title); for Selectivity ratio: STAT3-null A4 versus STAT3-dependent MDA-MB-231. An excerpt: (§1) MTT Cell viability assay with both MDA-MB-231 breast (STAT3-dependent) and A4 (STAT3-null) cancer cell lines.
(§2) After observing significant STAT3 dimerisation inhibitory activity in the preliminary FP assay, the target ligand and related fragments were progressed to an MTT cytotoxicity assay to evaluate in a STAT3-dependent tumour cell line (MDA MB 231, breast cancer) and a STAT3 null A4 cell line. It was anticipated that the compounds would show selective toxicity towards the STAT3-dependent MDA MB 231 cell line and would have lost activity in the STAT3 null A4 cell line if the mechanism of action was STAT3-mediated.
(§3) For each cell line, a total of 10,000 cells were seeded for 24 hours before addition of the inhibitors. The cells were grown in normal cell culture conditions at 37° C. under a 5% CO2 humidified atmosphere using an appropriate medium. The cell count was adjusted to 10^5 cells/ml, and 5,000-20,000 cells were added per well depending on the cell line. The cells were then incubated for 24 hours, and 1 μl aliquots of the inhibitors were added to the wells in triplicate. […] Absorbance was quantified by spectrophotometry at A=570 nm (Envision™ Plate Reader, PerkinElmer™, USA). IC50 values were calculated by a dose-response analysis using the Prism GraphPad Prism® software package.
In general terms: Tetrazolium assays rely on reduction of a dye to a coloured formazan, in cell work by metabolically active cells.

Assay [2] concerns the target unphosphorylated STAT3 monomer (uSTAT3) SH2 domain (Homo sapiens, UniProt P40763). The assay can be described thus: Fluorescence polarisation assay for the inhibition of STAT3 dimerisation. It counts as binding. The following applies: 350 nM uSTAT3, 10 nM FAM-pYLPQTV, 100 μM ligand; average of triplicate. The source says: Fluorescence Polarisation Assay for the Inhibition of STAT3 Dimerisation
The compounds were subjected to an in vitro fluorescent polarisation (FP)-based primary PPI binding screen to assess their ability to inhibit STAT3 dimerisation by interacting with the SH2 domain. In this FP assay, the unphosphorylated STAT3 monomer (uSTAT3) and a surrogate peptide FAM-pYLPQTV were used to form a ‘pseudo-dimer’. The assay is based on the concept that the compounds were expected to displace the surrogate peptide from the uSTAT3 resulting in a fluorescent read out.
Specifically, for the FP assay, a black (CORNING™) 96 well plate was thoroughly washed with distilled water and allowed to dry. A 100 nM FAM-pYLPQTV working solution was prepared from 10 μM FAM-pYLPQTV stock solution (in DMSO) using PBS pH 7.4 Buffer. 10 μl FAM-pYLPQTV was added to 350 nM uSTAT3 protein, the final concentration of protein in each well, in 90 μl PBS buffer pH 7.4. The MP value of the surrogate dimer complex was measured using a fluorescent plate reader (Envision™, Perkin Elmer™, USA), which provided the base MP value. The inhibitor solution was then added to the well and the assay plate was placed on a shaker for 5 minutes. The MP value for each well was then measured again. A shift in fluorescent values was observed due to displacement of the fluorescently-labelled surrogate peptide by the inhibitors, and the average inhibition for each inhibitor could be calculated as described below:
Base MP value (X) for each well=MP value of Protein and Probe (350 nm STAT3+10 nM FAM-pYLPQTV)−MP value of free FAM-pYLPQTV
Inhibitor MP value (Y) for each well=MP value of Protein+Probe+Inhibitor (350 nm uSTAT3+10 nM FAM-pYLPQTV+2 μL Inhibitor)−MP value of free FAM-pYLPQTV with 2 μL DMSO
% inhibition by any ligand/peptide=(X−Y)/X*100
For comparison purpose, the % inhibition produced by 100 μM pYLKTKF was considered to be 100%, and the inhibition produced by different ligands was reported as relative to 100 μM pYLKTKF.
% Inhibition produced by 100 μM pYLKTKF=A
% Inhibition produced by 100 μM Ligand=B
Relative inhibition (%)=B/A*100
The experiment was carried out in triplicate, and average values were taken as the measure of PPI inhibition.
Background: Polarisation of emitted light reports the rotation of a fluorescent probe.

Assay [3] has as its system A4 (STAT3-null) cancer cell line. The assay can be described thus: MTT cell viability assay, A4. It counts as cell-based.
Text: as §1, §2, §3

[4] abbreviates: 48 hours exposure (table title).

Chain of unphosphorylated STAT3 monomer (uSTAT3) SH2 domain (P40763 whole entry, the tested form may be a part): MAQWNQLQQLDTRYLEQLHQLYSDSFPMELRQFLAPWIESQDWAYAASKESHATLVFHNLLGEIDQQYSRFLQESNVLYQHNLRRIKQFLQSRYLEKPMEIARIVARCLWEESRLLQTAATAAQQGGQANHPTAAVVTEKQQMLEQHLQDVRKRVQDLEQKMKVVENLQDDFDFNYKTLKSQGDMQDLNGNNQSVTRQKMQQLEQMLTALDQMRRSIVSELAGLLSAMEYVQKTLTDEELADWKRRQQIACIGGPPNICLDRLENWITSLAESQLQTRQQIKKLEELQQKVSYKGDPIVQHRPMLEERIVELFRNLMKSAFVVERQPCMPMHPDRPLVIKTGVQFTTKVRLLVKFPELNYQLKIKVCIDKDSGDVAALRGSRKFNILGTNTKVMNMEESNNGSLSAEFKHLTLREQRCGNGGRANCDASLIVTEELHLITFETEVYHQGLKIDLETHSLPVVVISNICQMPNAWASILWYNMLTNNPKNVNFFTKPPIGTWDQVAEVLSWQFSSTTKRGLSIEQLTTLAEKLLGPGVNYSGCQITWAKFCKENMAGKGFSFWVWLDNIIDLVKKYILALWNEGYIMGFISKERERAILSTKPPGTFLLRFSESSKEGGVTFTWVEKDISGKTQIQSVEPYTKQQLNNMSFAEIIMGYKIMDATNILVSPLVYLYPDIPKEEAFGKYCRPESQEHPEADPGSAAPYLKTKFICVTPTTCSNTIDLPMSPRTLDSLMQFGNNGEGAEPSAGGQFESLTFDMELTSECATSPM

As for `COC(=O)c1ccc(N(C)S(=O)(=O)c2cc(C(=O)Nc3ccc(N4CCCCC4)cc3)sc2-c2ccc(N3CCCCC3)cc2)cc1` [Compound 18, methyl 4-((N-methyl-2-(4-(piperidin-1-yl)phenyl)-5-((4-(piperidin-1-yl)phenyl)carbamoyl)thiophene)-3-sulfonamido)benzoate], the IC50 came out at 3.5 µM in assay [1] (Homo sapiens, MDA-MB-231, 48 h) and 45.3 µM in assay [3] (exposure (table title)). Also, the Selectivity ratio in assay [1] is on record as 12.94. The same compound registered an inhibition at 100 µM in assay [2] of 45.8%.
In the same order, the values of `COC(=O)c1ccc(N(C)S(=O)(=O)c2cc(C(=O)Nc3cccc(N4CCCCC4)c3)sc2-c2ccc(N3CCCCC3)cc2)cc1` [Compound 19, methyl 4-((N-methyl-2-(4-(piperidin-1-yl)phenyl)-5-((3-(piperidin-1-yl)phenyl)carbamoyl)thiophene)-3-sulfonamido)benzoate] are 3.2 µM, 34.6 µM, 10.81 and 43.7%.
On to `COC(=O)c1ccc(N(C)S(=O)(=O)c2cc(C(=O)Nc3ccc4c(ccn4Cc4ccccc4)c3)sc2-c2ccc(N3CCCCC3)cc2)cc1` [Compound 20, methyl 4-((5-((1-benzyl-1H-indol-5-yl)carbamoyl)-N-methyl-2-(4-(piperidin-1-yl)phenyl)thiophene)-3-sulfonamido)benzoate], for which the IC50 was 10.5 µM in assay [1] (Homo sapiens, MDA-MB-231, 48 h) and 58.8 µM in assay [3] (exposure (table title)). Besides, in assay [1], the Selectivity ratio came out at 5.62. This compound showed an inhibition at 100 µM in assay [2] of 35.6%.
Regarding `COC(=O)c1ccc(N(C)S(=O)(=O)c2cc(C(=O)Nc3ccc(N4CCCCC4)cc3)sc2Br)cc1` [Compound 21, methyl 4-((2-bromo-N-methyl-5-((4-(piperidin-1-yl)phenyl)carbamoyl)thiophene)-3-sulfonamido)benzoate], the IC50 in assay [1] (Homo sapiens, MDA-MB-231, 48 h) was 23.5 µM; in assay [3] (exposure (table title)), 64.7 µM. Moreover, the Selectivity ratio in assay [1] is given as 2.75. For the same compound, the inhibition at 100 µM in assay [2] was determined as 22.7%.
Take `COC(=O)c1ccc(N(C)S(=O)(=O)c2cc(C(=O)Nc3cccc(N4CCOCC4)c3)sc2Br)cc1` [Compound 22, methyl 4-((2-bromo-N-methyl-5-((3-morpholinophenyl)carbamoyl)thiophene)-3-sulfonamido)benzoate]: the IC50 in assay [1] (Homo sapiens, MDA-MB-231, 48 h) was determined as 34.4 µM; in assay [3] (exposure (table title)), 73.5 µM. The Selectivity ratio in assay [1] is 2.13. This compound also registered an inhibition at 100 µM in assay [2] of 11.7%.
As to `COC(=O)c1ccc(N(C)S(=O)(=O)c2cc(C(=O)Nc3ccc(CN4CCOCC4)cc3)sc2Br)cc1` [Compound 23, methyl 4-((2-bromo-N-methyl-5-((4-(morpholinomethyl)phenyl)carbamoyl)thiophene)-3-sulfonamido)benzoate], the IC50 in assay [1] (Homo sapiens, MDA-MB-231, 48 h) was 12.5 µM; in assay [3] (exposure (table title)), 54.3 µM. Further, in assay [1], the Selectivity ratio came out at 4.34. In assay [2], this compound returned an inhibition at 100 µM of 31.3%.
In the same order, the values of `COC(=O)c1ccc(N(C)S(=O)(=O)c2cc(C(=O)NCc3ccc(N4CCOCC4)cc3)sc2Br)cc1` [Compound 24, methyl 4-((2-bromo-N-methyl-5-((4-morpholinobenzyl)carbamoyl)thiophene)-3-sulfonamido)benzoate] are 34.5 µM, 33.2 µM, 0.96 and 9.42%.
`COC(=O)c1ccc(N(C)S(=O)(=O)c2cc(C(=O)NCc3ccc(OCCN4CCOCC4)cc3)sc2Br)cc1` [Compound 25, methyl 4-((2-bromo-N-methyl-5-((4-(2-morpholinoethoxy)benzyl)carbamoyl)thiophene)-3-sulfonamido)benzoate]: the results for the IC50 in assay [1] and in assay [3] (setting [4]) were 3.6 µM and 43.6 µM, respectively. Further, the “% Inhibition” value in assay [2] stood at 49.62%.
Take `COC(=O)c1ccc(N(C)S(=O)(=O)c2cc(C(=O)NCc3ccc(N4CCCCC4)cc3)sc2Br)cc1` [Compound 26, methyl 4-((2-bromo-N-methyl-5-((4-(piperidin-1-yl)benzyl)carbamoyl)thiophene)-3-sulfonamido)benzoate]: the IC50 in assay [1] (Homo sapiens, MDA-MB-231, 48 h) was determined as 14.5 µM; in assay [3] (exposure (table title)), 25.8 µM. In addition, in assay [1], the Selectivity ratio is 1.77. The inhibition at 100 µM in assay [2] was determined as 8.24%.
In the same order, the values of `COC(=O)c1ccc(NC(=O)c2cc(S(=O)(=O)N(C)c3ccc(C(=O)OC)cc3)c(Br)s2)cc1` [Compound 27, methyl 4-(5-bromo-4-(N-(4-(methoxycarbonyl)phenyl)-N-methylsulfamoyl)thiophene-2-carboxamido)benzoate] are 8.7 µM, 58.3 µM, 6.70 and 20.3%.
In the same order, the values of `COC(=O)c1ccc(N(C)S(=O)(=O)c2cc(C(=O)Nc3cccc(N4CCCCC4)c3)sc2Br)cc1` [Compound 28, methyl 4-((2-bromo-N-methyl-5-((3-(piperidin-1-yl)phenyl)carbamoyl)thiophene)-3-sulfonamido)benzoate] are 6.5 µM, 42.7 µM, 6.56 and 51.3%.
Take `COC(=O)c1ccc(N(C)S(=O)(=O)c2cc(C(=O)Nc3ccc(OCCN4CCOCC4)cc3)sc2Br)cc1` [Compound 29, methyl 4-((2-bromo-N-methyl-5-((4-(2-morpholinoethoxy)phenyl)carbamoyl)thiophene)-3-sulfonamido)benzoate]: the half-inhibitory concentration (IC50) in assay [1] is 5.8 µM; in assay [3] (setting [4]), 53.6 µM. The “% Inhibition” value in assay [2] came out at 42.90%.
As to `COC(=O)c1ccc(N(C)S(=O)(=O)c2cc(C(=O)Nc3ccc(N4CCOCC4)nc3)sc2Br)cc1` [Compound 30, methyl 4-((2-bromo-N-methyl-5-((6-morpholinopyridin-3-yl)carbamoyl)thiophene)-3-sulfonamido)benzoate], the IC50 in assay [1] (Homo sapiens, MDA-MB-231, 48 h) is 24.6 µM; in assay [3] (exposure (table title)), 82.3 µM. Besides, the Selectivity ratio in assay [1] was 3.34. Also, in assay [2], 100 µM produced 19.5% inhibition.
Regarding `COC(=O)c1ccc(N(C)S(=O)(=O)c2cc(C(=O)NCc3ccc(CN4CCOCC4)cc3)sc2Br)cc1` [Compound 31, methyl 4-((2-bromo-N-methyl-5-((4-(morpholinomethyl)benzyl)carbamoyl)thiophene)-3-sulfonamido)benzoate], the IC50 in assay [1] (Homo sapiens, MDA-MB-231, 48 h) is 32.5 µM; in assay [3] (exposure (table title)), 24.7 µM. For the same compound, the Selectivity ratio in assay [1] worked out at 0.76. In addition, in assay [2], the inhibition at 100 µM came to 27.3%.
On to `COC(=O)c1ccc(N(C)S(=O)(=O)c2cc(C(=O)NCc3ccc(N4CCN(C)CC4)cc3)sc2Br)cc1` [Compound 32, methyl 4-((2-bromo-N-methyl-5-((4-(4-methylpiperazin-1-yl)benzyl)carbamoyl)thiophene)-3-sulfonamido)benzoate], for which the IC50 was determined as 7.65 µM in assay [1] (Homo sapiens, MDA-MB-231, 48 h) and 74.5 µM in assay [3] (exposure (table title)). Further, in assay [1], the Selectivity ratio turned out to be 9.73. Further, the inhibition at 100 µM in assay [2] is 6.18%.
For `COC(=O)c1ccc(N(C)S(=O)(=O)c2cc(C(=O)NCc3ccc(CN4CCCCC4)cc3)sc2Br)cc1` [Compound 33, methyl 4-((2-bromo-N-methyl-5-((4-(piperidin-1-ylmethyl)benzyl)carbamoyl)thiophene)-3-sulfonamido)benzoate], the IC50 was 4.45 µM in assay [1] (Homo sapiens, MDA-MB-231, 48 h) and 94.2 µM in assay [3] (exposure (table title)). Besides, the Selectivity ratio in assay [1] is recorded as 21.16. For the same compound, the inhibition at 100 µM in assay [2] is 42.3%.

Usually IC50 stands for the concentration that gives 50% inhibition. A lower IC50 goes with greater potency in that assay. In general, inhibition refers to the drop in the measured response relative to a control, in per cent. Low values mean a response near the control, high ones a response far below the control. For orientation: % Inhibition means the drop in the measured response relative to a control, in per cent. A low value points to a response near the control.

These data come from US20200216432A1, “SULFONAMIDE DERIVATIVES AS STAT3 INHIBITORS FOR THE TREATMENT OF PROLIFERATIVE DISEASES” (King's College London, priority 2017, published 2020).
